Our source for the IC50 and CC50 values is ChEMBL document CHEMBL5260828, “Amphiphilic glycoconjugates as potential anti-cancer chemotherapeutics” (Eur J Med Chem, 2018).

Experiment [1] deals with HeLa. As to the kind of experiment: Antiproliferative activity against human HeLa cells assessed as inhibition of cell growth incubated for 24 hrs by MTT assay. In kind it is functional, cell-based.
The test system of experiment [2] is Hep 3B2. The experiment is described as follows: Cytotoxicity against human Hep3B cells assessed as cell growth inhibition by MTT colorimetric assay. The experiment is classed as functional, cell-based. For orientation: Formazan colour is commonly taken as a measure of viable cells.
In experiment [3] the test system is HepG2. As to the kind of experiment: Cytotoxicity against human HepG2 cells assessed as cell growth inhibition by MTT colorimetric assay. In kind it is functional, cell-based.
Experiment [4] relates to MDA-MB-231. The experiment is described as follows: Cytotoxicity against human MDA-MB-231 cells assessed as cell growth inhibition by MTT colorimetric assay. The experiment is classed as functional, cell-based.
Experiment [5] has as its system Ca9-22. As to the kind of experiment: Cytotoxicity against human Ca9-22 cells assessed as cell growth inhibition by MTT colorimetric assay. In kind it is functional, cell-based.
For experiment [6], the system named is HCT-116. The experiment is described as follows: Antiproliferative activity against human HCT-116 cells assessed as inhibition of cell growth incubated for 48 hrs by MTT assay. The experiment is classed as functional, cell-based.
Experiment [7] deals with MCF7. As to the kind of experiment: Antiproliferative activity against human MCF7 cells assessed as inhibition of cell growth incubated for 48 hrs by MTT assay. The experiment is classed as functional, cell-based.
The subject of experiment [8] is NCI-H460. The experiment is described as follows: Antiproliferative activity against human NCI-H460 cells assessed as inhibition of cell growth incubated for 48 hrs by MTT assay. In kind it is functional, cell-based.
Experiment [9] concerns AGS. The experiment is described as follows: Antiproliferative activity against human AGS cells assessed as inhibition of cell growth incubated for 48 hrs by MTT assay. The experiment is classed as functional, cell-based.
Experiment [10] concerns SF-268. The experiment is described as follows: Antiproliferative activity against human SF-268 cells assessed as inhibition of cell growth incubated for 48 hrs by MTT assay. In kind it is functional, cell-based.
Experiment [11] concerns NUGC-3. As to the kind of experiment: Cytotoxicity against human NUGC-3 cells assessed as cell growth inhibition by measuring lethal dose incubated for 30 mins by MTT assay. In kind it is functional. To be noted: NUGC-3, 0.5 h, read-out: LD50 (the source's name).
Experiment [12] relates to HeLa S3. The experiment is described as follows: Cytotoxicity against human HeLa S3 cells assessed as inhibition of cell proliferation incubated for 72 hrs by MTT assay. In kind it is functional, cell-based. To be noted: HeLa S3, 72 h.
Experiment [13] concerns HL-60. The experiment is described as follows: Cytotoxicity against human HL-60 cells assessed as inhibition of cell proliferation incubated for 72 hrs by MTT assay. In kind it is functional, cell-based. The note with it: HL-60, 72 h.
Experiment [14] relates to Lung NSCLC-N6 cell-line. The experiment is described as follows: Cytotoxicity against human Lung NSCLC-N6 cell-line by MTT colorimetric assay. In kind it is functional, cell-based.

In brackets after ≈: the same amount, converted by molar mass.

By IC50 is commonly meant the concentration that gives 50% inhibition.

Consider `CCCCCCCCCCCCCC(=O)OCC(O)C[C@@H]1O[C@H](COC(C)=O)[C@H](OC(C)=O)[C@H](OC(C)=O)[C@H]1OC(C)=O` (stereo partly drawn), for which the IC50 in experiment [1] worked out at 57 µg/mL (≈ 92.4 µM).

Regarding `CCCCCCCCCCCCCCCCCCCCCCCCCCCC(=O)OC[C@H](CC[C@@H]1O[C@H](CO)[C@H](O)[C@H](O)[C@H]1O)OC(=O)CCCCCCCCCCCCCCCCCCCCCCCCCCC`, the half-inhibitory concentration (IC50) in experiment [1] is above 100 µg/mL.

`CCCCCCCCCCCCOC[C@@H](COO)O[C@@H]1OC[C@@H](O)[C@@H](O)[C@@H]1O`: the half-inhibitory concentration (IC50) in experiment [2], in experiment [3], in [4] and in [5] was 9.2 µg/mL (≈ 22.5 µM) throughout.

Regarding `CC/C=C\C/C=C\C/C=C\CCCCCCCC(=O)OCC(CO[C@@H]1O[C@H](CO)[C@H](O)[C@H](O)[C@H]1O)OC(=O)CCCCCCC/C=C\C/C=C\C/C=C\CC` (stereo partly drawn), the IC50 in [6], in experiment [7], in experiment [8], in [9] and in experiment [10] was 0.039 µg/mL (≈ 0.0503 µM) each time.

With `CCCCCCCCCCCCCCCCCC(=O)OCC(O)CO[C@@H]1O[C@H](CS(=O)(=O)O)[C@@H](O)[C@H](O)[C@H]1O` (stereo partly drawn), the CC50 in [11] came to 135 µM.

Consider `C/C=C/C/C(C)=C\[C@H]1C/C=C/C=C/C[C@H](C)/C=C(\C)[C@@H](OC)C[C@@H](O)C[C@@H](O[C@@H]2O[C@H](CO)[C@@H](O)[C@H](OC)[C@H]2O)CC(=O)O1`, for which the figures for the IC50 in experiment [12] and in [13] were 6.5 µM and 0.04 µM, respectively.

For `CCCCCCCCCCCCOC[C@@H](COC(C)=O)O[C@@H]1OC[C@@H](O)[C@@H](O)[C@@H]1O`, the half-inhibitory concentration (IC50) in experiment [2], in experiment [3], in experiment [4] and in experiment [5] was 9.2 µg/mL (≈ 21.2 µM) in each case.

On to `CCCCCCCCCCCCCCCCCC(=O)OC[C@H](COC1O[C@H](CS(=O)(=O)[O-])[C@@H](O)[C@H](O)[C@H]1O)OCC(=O)CCCCCCCCCCCCCCC.[Na+]` (stereo partly drawn), for which the CC50 in experiment [11] was 80 µg/mL.

Compound `CO[C@@H]1/C=C(\C)C[C@H](/C=C/C#C[C@H]2C[C@@H]2Cl)OC(=O)[C@@H](C)[C@]2(O)C[C@H](O[C@@H]3O[C@@H](C)[C@H](O[C@@H]4O[C@@H](C)[C@H](O)[C@@](C)(O)[C@H]4OC)[C@@](C)(O)[C@H]3OC)[C@@H](C)[C@@H](O2)[C@@H]1C` yielded a half-inhibitory concentration (IC50) in experiment [14] of 15.1 µg/mL (≈ 18.5 µM).

Take `CCCCCCCCCCCCCCCCCCCCCCCCCCCC(=O)OC[C@H](CC[C@@H]1O[C@H](CO)[C@@H](O)[C@H](O)[C@H]1O)OC(=O)CCCCCCCCCCCCCCCCCCCCCCCCCCC`: the half-inhibitory concentration (IC50) in [1] is above 100 µg/mL.

Regarding `CC/C=C\C/C=C\C/C=C\CCCCCCCC(=O)OCC(CO[C@@H]1O[C@H](CO)[C@H](O)[C@H](O)[C@H]1O)OC(=O)CCCCCCCCCCCCCCC` (stereo partly drawn), the half-maximal inhibitory concentration (IC50) in [6], in experiment [7], in [8], in experiment [9] and in [10] was 0.039 µg/mL (≈ 0.0518 µM) in each case.

With `CCCCCCCCCCCCCCOC[C@@H](COO)O[C@@H]1OC[C@@H](O)[C@@H](O)[C@@H]1O`, the half-inhibitory concentration (IC50) in [2], in [3], in experiment [4] and in experiment [5] was 9.2 µg/mL (≈ 21.1 µM) throughout.

In the case of `CCCCCCCCCCCCCCCCCC(=O)OCC(O)CO[C@H]1O[C@H](CS(=O)(=O)O)[C@@H](O)[C@H](O)[C@H]1O` (stereo partly drawn), the CC50 in experiment [11] was 150 µM.

On to `C/C=C/C/C(C)=C\[C@H]1C/C=C/C=C/C[C@H](C)/C=C(\C)[C@@H](OC)C[C@@H](O)C[C@@H](O)CC(=O)O1`, for which the IC50 in experiment [12] was found to be 0.039 µM; in experiment [13] it was 0.012 µM.

For `CC/C=C\C/C=C\C/C=C\CCCCCCCC(=O)OCC(CO[C@@H]1O[C@H](CO)[C@H](O)[C@H](O)[C@H]1O)OC(=O)CCCCCCCCCCCCCCCCC` (stereo partly drawn), the concentration for half-maximal inhibition (IC50) in experiment [6], in experiment [7], in experiment [8], in experiment [9] and in [10] was 0.039 µg/mL (≈ 0.0499 µM) each time.
